Results published in PubChem BioAssay AID200 (DTP/NCI, 2004).
Several values for one entry are separate records, joined by “and”; a condition that tells them apart may be missing. Identical values can stand only once. Toxic doses and inconclusive results are not listed.

Test system: B6C3F1 mice, B16 melanoma ip, median survival T/C
Test: NCI In Vivo Anticancer Drug Screen. Data for tumor model B16 Melanoma (intraperitoneal) in B6C3F1 mice
Conditions: endpoint: median survival time, higher = longer survival
Summary of the method: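 Readout: survival or tumor size in treated mice relative to vehicle controls (T/C). Model uses transplantable tumors grown in mice.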

[1] = dose: 6.25 mg/kg/injection, schedule: Q01DX009 (ip), vehicle: saline with Tween-80
[2] = dose: 25.0 mg/kg/injection, schedule: Q01DX009 (ip), vehicle: saline with Tween-80
[3] = dose: 50.0 mg/kg/injection, schedule: Q01DX009 (ip), vehicle: saline with Tween-80
[4] = dose: 50.0 mg/kg/injection, schedule: Q01DX009 (ip), vehicle: Klucel (hydroxypropylcellulose) (HPC)
[5] = dose: 200.0 mg/kg/injection, schedule: Q01DX009 (ip), vehicle: Klucel (hydroxypropylcellulose) (HPC)
[6] = dose: 12.5 mg/kg/injection, schedule: Q01DX009 (ip), vehicle: saline
[7] = dose: 25.0 mg/kg/injection, schedule: Q01DX009 (ip), vehicle: saline
[8] = dose: 50.0 mg/kg/injection, schedule: Q01DX009 (ip), vehicle: saline
[9] = dose: 100.0 mg/kg/injection, schedule: Q01DX009 (ip), vehicle: saline
[10] = dose: 200.0 mg/kg/injection, schedule: Q01DX009 (ip), vehicle: saline
[11] = dose: 200.0 mg/kg/injection, schedule: Q01DX009 (ip), vehicle: saline with Tween-80
[12] = dose: 100.0 mg/kg/injection, schedule: Q01DX009 (ip), vehicle: saline with Tween-80
[13] = dose: 400.0 mg/kg/injection, schedule: Q01DX009 (ip), vehicle: saline with Tween-80

With `O=C(O)CNC(=O)c1ccccc1` as the compound, how does the T/C (dose: 40.0 mg/kg/injection, schedule: Q01DX009 (ip), vehicle: saline with Tween-80) read?
Its T/C is 96 % of control.

And the T/C (dose: 80.0 mg/kg/injection, schedule: Q01DX009 (ip), vehicle: saline with Tween-80)?
Its T/C is 95 % of control.

For `COc1cc([C@@H]2c3cc4c(cc3[C@H](OC3OC5COC(c6ccccc6)OC5C(O)C3O)[C@H]3COC(=O)[C@H]23)OCO4)cc(OC)c1OC` (stereo partly specified), which T/C [1] is on record?
Its T/C is 123 % of control.

What about the T/C [2] of the same compound?
The T/C was 154 % of control.

What about the T/C [3] of the same compound?
The T/C was 169 % of control and 177 % of control.

For `CO[C@H]1C[C@H](O[C@H]2CC[C@@]3(C)[C@H](CC[C@@H]4[C@@H]3CC[C@]3(C)[C@@H](C5=CC(=O)OC5)CC[C@]43O)C2)O[C@H](C)[C@H]1O`, which T/C (dose: 1.9 mg/kg/injection, schedule: Q01DX009 (ip), vehicle: Klucel (hydroxypropylcellulose) (HPC)) is on record?
The T/C was 88 % of control.

And the T/C (dose: 2.8 mg/kg/injection, schedule: Q01DX009 (ip), vehicle: Klucel (hydroxypropylcellulose) (HPC))?
The T/C was 100 % of control.

What about the T/C (dose: 4.3 mg/kg/injection, schedule: Q01DX009 (ip), vehicle: Klucel (hydroxypropylcellulose) (HPC)) of the same compound?
Its T/C is 102 % of control.

And the T/C (dose: 6.4 mg/kg/injection, schedule: Q01DX009 (ip), vehicle: Klucel (hydroxypropylcellulose) (HPC))?
Its T/C is 94 % of control.

`Oc1c(Cl)cc(C(c2cc(Cl)c(O)c(Cl)c2)C(c2cc(Cl)c(O)c(Cl)c2)c2cc(Cl)c(O)c(Cl)c2)cc1Cl` was tested. Which T/C (dose: 12.5 mg/kg/injection, schedule: Q01DX009 (ip), vehicle: Klucel (hydroxypropylcellulose) (HPC)) did it give?
The T/C was 88 % of control and 100 % of control.

What about the T/C (dose: 25.0 mg/kg/injection, schedule: Q01DX009 (ip), vehicle: Klucel (hydroxypropylcellulose) (HPC)) of the same compound?
The T/C was 92 % of control and 99 % of control.

What about the T/C [4] of the same compound?
The T/C was 93 % of control and 101 % of control.

And the T/C (dose: 100.0 mg/kg/injection, schedule: Q01DX009 (ip), vehicle: Klucel (hydroxypropylcellulose) (HPC))?
Its T/C is 93 % of control and 101 % of control.

And the T/C [5]?
The T/C was 104 % of control.

What does the source list for `Cc1ccccc1N(CC1CO1)CC1CO1` (stereo unspecified)?
T/C [6]: 113 % of control; T/C [7]: 105 % of control; T/C [8]: 100 % of control; T/C [9]: 116 % of control; T/C [10]: 124 % of control

Which results are given for `COc1ccc(C[C@@H]2NC[C@@H](O)[C@@H]2OC(C)=O)cc1`?
T/C [2]: 124 % of control; T/C (dose: 25.0 mg/kg/injection, schedule: Q04DX003 (ip), vehicle: saline with Tween-80): 112 % of control; T/C [3]: 120 % of control; T/C (dose: 50.0 mg/kg/injection, schedule: Q04DX003 (ip), vehicle: saline with Tween-80): 110 % of control; T/C (dose: 100.0 mg/kg/injection, schedule: Q04DX003 (ip), vehicle: saline with Tween-80): 114 % of control; T/C [11]: 120 % of control and 121 % of control; T/C (dose: 200.0 mg/kg/injection, schedule: Q04DX003 (ip), vehicle: saline with Tween-80): 112 % of control

Which results are given for `CN(C)CCC(=O)C(=Cc1ccc(O)cc1)C(=O)CCN(C)C`?
T/C [6]: 101 % of control; T/C [7]: 97 % of control; T/C [8]: 101 % of control; T/C [9]: 97 % of control; T/C [10]: 102 % of control

For `CN(C)CCNc1ccc(NCCN(C)C)c2c1C(=O)c1ccccc1C2=O`, which T/C (dose: 20.0 mg/kg/injection, schedule: Q01DX009 (ip), vehicle: distilled water + Tween-80) is on record?
Its T/C is 117 % of control.

Which T/C (dose: 0.05 mg/kg/injection, schedule: Q01DX009 (ip), vehicle: Klucel (hydroxypropylcellulose) (HPC)) does the source give for `CCCN(CCC)C(C)C(O)c1cc2c(c3ccccc13)CCCC2` (stereo unspecified) here?
The T/C was 99 % of control.

What about the T/C (dose: 0.1 mg/kg/injection, schedule: Q01DX009 (ip), vehicle: Klucel (hydroxypropylcellulose) (HPC)) of the same compound?
Its T/C is 91 % of control and 103 % of control.

What about the T/C (dose: 0.2 mg/kg/injection, schedule: Q01DX009 (ip), vehicle: Klucel (hydroxypropylcellulose) (HPC)) of the same compound?
Its T/C is 97 % of control and 107 % of control.

And the T/C (dose: 0.39 mg/kg/injection, schedule: Q01DX009 (ip), vehicle: Klucel (hydroxypropylcellulose) (HPC))?
The T/C was 109 % of control.

What about the T/C (dose: 0.4 mg/kg/injection, schedule: Q01DX009 (ip), vehicle: Klucel (hydroxypropylcellulose) (HPC)) of the same compound?
The T/C was 96 % of control and 101 % of control.

What about the T/C (dose: 0.78 mg/kg/injection, schedule: Q01DX009 (ip), vehicle: Klucel (hydroxypropylcellulose) (HPC)) of the same compound?
Its T/C is 108 % of control.

What about the T/C (dose: 1.56 mg/kg/injection, schedule: Q01DX009 (ip), vehicle: Klucel (hydroxypropylcellulose) (HPC)) of the same compound?
Its T/C is 114 % of control and 95 % of control and 96 % of control.

And the T/C (dose: 3.12 mg/kg/injection, schedule: Q01DX009 (ip), vehicle: Klucel (hydroxypropylcellulose) (HPC))?
The T/C was 94 % of control.

What about the T/C (dose: 6.25 mg/kg/injection, schedule: Q01DX009 (ip), vehicle: Klucel (hydroxypropylcellulose) (HPC)) of the same compound?
Its T/C is 96 % of control and 101 % of control.

What about the T/C [4] of the same compound?
The T/C was 86 % of control.

With `NC(CSSCC(N)C(=O)O)C(=O)O` (stereo unspecified) as the compound, how does the T/C [12] read?
The T/C was 101 % of control.

And the T/C [11]?
Its T/C is 103 % of control.

What about the T/C [13] of the same compound?
The T/C was 117 % of control.

What about the T/C (dose: 800.0 mg/kg/injection, schedule: Q01DX009 (ip), vehicle: saline with Tween-80) of the same compound?
The T/C was 102 % of control.

What does the source list for `O=C1C=C[C@H](O)[C@@]2(CO)O[C@@H]12`?
T/C (dose: 0.31 mg/kg/injection, schedule: Q01DX009 (ip), vehicle: saline with Tween-80): 98 % of control; T/C (dose: 0.62 mg/kg/injection, schedule: Q01DX009 (ip), vehicle: saline with Tween-80): 100 % of control; T/C (dose: 1.25 mg/kg/injection, schedule: Q01DX009 (ip), vehicle: saline with Tween-80): 102 % of control; T/C (dose: 2.5 mg/kg/injection, schedule: Q01DX009 (ip), vehicle: saline with Tween-80): 109 % of control; T/C (dose: 5.0 mg/kg/injection, schedule: Q01DX009 (ip), vehicle: saline with Tween-80): 115 % of control and 93 % of control; T/C (dose: 10.0 mg/kg/injection, schedule: Q01DX009 (ip), vehicle: saline with Tween-80): 121 % of control

`COc1ccc([C@@]23Oc4cc(OC)cc(OC)c4[C@]2(O)[C@H](O)[C@H](C(=O)N(C)C)[C@H]3c2ccccc2)cc1` was tested. Which T/C (dose: 0.25 mg/kg/injection, schedule: Q01DX009 (ip), vehicle: Klucel (hydroxypropylcellulose) (HPC)) did it give?
The T/C was 97 % of control.

And the T/C (dose: 0.5 mg/kg/injection, schedule: Q01DX009 (ip), vehicle: Klucel (hydroxypropylcellulose) (HPC))?
The T/C was 119 % of control and 91 % of control and 106 % of control.

And the T/C (dose: 1.0 mg/kg/injection, schedule: Q01DX009 (ip), vehicle: Klucel (hydroxypropylcellulose) (HPC))?
The T/C was 112 % of control and 117 % of control.

What about the T/C (dose: 2.0 mg/kg/injection, schedule: Q01DX009 (ip), vehicle: Klucel (hydroxypropylcellulose) (HPC)) of the same compound?
The T/C was 103 % of control and 104 % of control and 106 % of control.

With `N=C1C=C[C@]2(O)C[C@H](Cl)CN12` as the compound, how does the T/C (dose: 0.75 mg/kg/injection, schedule: Q01DX009 (ip), vehicle: saline) read?
Its T/C is 102 % of control.

What about the T/C (dose: 1.5 mg/kg/injection, schedule: Q01DX009 (ip), vehicle: saline) of the same compound?
The T/C was 111 % of control.

And the T/C (dose: 3.0 mg/kg/injection, schedule: Q01DX009 (ip), vehicle: saline)?
Its T/C is 119 % of control.

And the T/C (dose: 6.0 mg/kg/injection, schedule: Q01DX009 (ip), vehicle: saline)?
Its T/C is 104 % of control.

`O=C1[C@H]2CCC[C@H]2[C@H]2CCC[C@@H]12` was tested. Which T/C [1] did it give?
Its T/C is 102 % of control.

And the T/C (dose: 12.5 mg/kg/injection, schedule: Q01DX009 (ip), vehicle: saline with Tween-80)?
Its T/C is 99 % of control.

What about the T/C [2] of the same compound?
The T/C was 100 % of control.

And the T/C [3]?
Its T/C is 100 % of control.

What about the T/C [12] of the same compound?
Its T/C is 100 % of control.

What does the source list for `CC(=O)OCC1OC([S-])C(OC(C)=O)C(OC(C)=O)C1OC(C)=O.CC[PH+](CC)CC.CC[PH+](CC)CC.[Au].[Au]` (stereo unspecified)?
T/C (dose: 0.62 mg/kg/injection, schedule: Q01DX009 (ip), vehicle: Klucel (hydroxypropylcellulose) (HPC)): 110 % of control and 105 % of control; T/C (dose: 1.25 mg/kg/injection, schedule: Q01DX009 (ip), vehicle: Klucel (hydroxypropylcellulose) (HPC)): 109 % of control; T/C (dose: 2.5 mg/kg/injection, schedule: Q01DX009 (ip), vehicle: Klucel (hydroxypropylcellulose) (HPC)): 98 % of control and 103 % of control; T/C (dose: 5.0 mg/kg/injection, schedule: Q01DX009 (ip), vehicle: Klucel (hydroxypropylcellulose) (HPC)): 114 % of control and 97 % of control; T/C (dose: 10.0 mg/kg/injection, schedule: Q01DX009 (ip), vehicle: Klucel (hydroxypropylcellulose) (HPC)): 92 % of control

For `OC(c1ccccc1)C(O)C(c1ccccc1)N1CCCCC1` (stereo unspecified), which T/C [12] is on record?
Its T/C is 100 % of control.

And the T/C [11]?
Its T/C is 102 % of control.

What about the T/C [13] of the same compound?
The T/C was 111 % of control.

With `CCCCC(NC(=O)OCc1ccccc1)C(=O)NC(Cc1c[nH]c2ccccc12)C(=O)O` (stereo unspecified) as the compound, how does the T/C [5] read?
Its T/C is 103 % of control.

What does the source list for `O=C1C=CC(=O)O1` (tested in a mixture with another compound)?
T/C [6]: 101 % of control; T/C (dose: 12.5 mg/kg/injection, schedule: Q04DX003 (ip), vehicle: saline): 104 % of control; T/C [7]: 113 % of control; T/C (dose: 25.0 mg/kg/injection, schedule: Q04DX003 (ip), vehicle: saline): 101 % of control and 106 % of control; T/C [8]: 117 % of control; T/C (dose: 50.0 mg/kg/injection, schedule: Q04DX003 (ip), vehicle: saline): 108 % of control; T/C (dose: 400.0 mg/kg/injection, schedule: Q01DX009 (ip), vehicle: saline): 123 % of control
